# What was measured:
# SAMP8 mice = test: Novel Object Recognition Test (NORT) in SAMP8 mice; format: in vivo, mouse
# Text: The Senescence Accelerated Mouse Prone 8 (SAMP8) strain is a non-transgenic model for neurodegeneration reminiscent of Alzheimer's disease (T Takeda, Neurobiol Aging 1999, 20(2):105-10). Memory deficits appear around 5 months of age in SAMP8 mice and can be reliably assessed using the Novel Object Recognition Test (NORT).
# Males and females were separated in two different cohorts and all treatments started at 5 months of age. […] Based on the results obtained in the first experiment, doses were adjusted in a second experiment using male mice.
# The dose was calculated according to the animal water consumption average par cage and adjusted weekly. The test compound (or vehicle) was available for 5 days followed by a 2 day clearance in a weekly period.
# NORT is used to assess animal's behavior when it is exposed to a novel and a familiar object (M Antunes and G Biala, Cogn Process. 2012, 13(2): 93-110). […]
# The NORT test was performed after 2 (n=16/group) and repeated at 4 (n=10/group) months of treatment (between […] and 6:30 pm). […] During this second trial, objects A and B were placed in the maze, and the time that the animal explored the new object (tn) and the old object (to) were video-recorded. […]
# Statistical analysis was performed using the GraphPad Prism 6.0 software package. NORT data from SAMP8 mice was analyzed by one-way ANOVA with treatment as the main factor. […]
# TUBB2C = test: Microarray gene expression, hippocampus of SAMP8 mice (Example 3), housekeeping gene; format: in vivo, mouse; settings: SAMP8 female pool
# Protocol: (§1) Total RNA was extracted from samples using the RNeasy extraction kit (Qiagen). The quality and concentration of the RNA was analyzed using the Agilent 2100 bioanalyzer and NanoDrop™ ND-1000 (Thermo Scientific). Samples with RNA integrity number (RIN)<6.0 were discarded. Total RNA (0.5 μg) amplification and labelling with Cy3 or Cy5 was carried out using the Eberwein mRNA amplification procedure (Van Gelder et al, Proc Natl Acad Sci USA 1990, 87:1663-1667) employing the MessageAmp™ aRNA amplification kit from Ambion (Applied Biosystems) following the manufacturer's instructions with minor modifications. As hybridization controls, plant mRNAs were transcribed from a plasmid containing the Zea mays Xet (xyloglucan endo-transglycosylase) cDNA and from a plasmid containing the Zea mays Zmmyb42 cDNA, independently prepared Cy3 and Cy5 labelled aRNA from these two RNAs using the Eberwein mRNA amplification procedure (as disclosed in Cerdà et al, Gen Comp Endocrinol 2008, 156:470-481).
# (§2) The Cy3- and Cy5-labelled cRNAs and spikes were combined and hybridized to the microarray described in Example 2.6 for 17 h at 60° C. using Agilent's gaskets G2534-60002, G2534A hybridization chambers and DNA Hybridization Oven G2545A, according to the manufacturer's instructions. More specifically, equal amounts of Cy3 and Cy5 labeled Xet aRNA as well as equal amounts of Cy3 and Cy5 labeled Zmmyb42 aRNA were spiked into each mixture hybridized to the array. Arrays were washed and raw data were obtained using Agilent's DNA Microarray Scanner G2505B and Feature Extraction software (v10.1). The raw fluorescence intensity data were processed using applicant's proprietary software, and consists in the following operations:
# (§3) Data normalization was carried out by an improved version of the nonlinear Q-splines normalization method (Workman et al., Genome Biol 2002, 3(9):research0048.1-0048.16). Normalization results were presented graphically as MA plots, as first described by Dudoit et al (Dudoit et al, Statistica Sinica, 2002, 12:111-139). Each point corresponds to a probe of the DNA array. M values (vertical axis) are the log-differential expression ratios. A values (horizontal axis) are the log-intensities of the spots. M and A are calculated from the Cy5 and Cy3 intensity values as of each spot. The DNA Array data is normalized using an improved version of non-linear Q-Splines normalization described by Workman et al., Genome Biol 2002, 3(9):research0048.1-0048.16. This process is useful to correct the deviation of the M values from the statistical assumption that most of the spots have M=0 in MA plots. The method allows the adjustment of all M values to form a cloud centered at M=0 in all intensity ranges. The data used to calculate the normalization fitting curve is the totality of the raw measurement dataset, excluding the signals for the probes for the spiked-in plant RNA controls and negative controls. In order to be able to normalize properly the data among all the experiments, the probe-set must include an important group of genes that should have no change (M=0) in the experiment. The normalization function is then applied to all the data, including controls.
# (§4) Normalized and log-transformed data were used to calculate log 2 (sample/control) and Fold Change (FC) values. No background subtraction was applied to the signal intensity values during data processing, permitting robust selection of differentially expressed genes with low expression levels at the cost of potential sub-estimation of change when intensity levels are close to the array background level.
# (§5) The technical replicate analysis is the statistical processing of the microarray data. Replicates were calculated to measure oligo replicates on an array or between replicates of experiments on different arrays (i.e. hybridization of the same sample). […]
# TUBB3 = test: as above; format: in vivo, mouse; settings: SAMP8 female pool
# Protocol: as §1, §2, §3, §4, §5
# [1] = Oral availability and blood-brain barrier crossing (statement)
substance,measurement,setting,value
"(−) 5-((((trans)-2-(4-(benzyloxy)phenyl)cyclopropyl)amino)methyl)-1,3,4-oxadiazol-2-amine [Compound 1]",memory loss as assessed by NORT,"SAMP8 mice; SAMP8 males and females, after 2 m and 4 m of treatment",completely prevents memory loss
same,"memory deficits (NORT), medium- and long-term memory","SAMP8 mice; SAMP8 males, 0.32 and 0.96 mg/kg/day in drinking water, 2 and 4 months",rescued the memory deficits
same,Hybridization signal sample_Cy5 TUBB2C,TUBB2C; HD 3.2 mg/kg/day,9173
same,log2 (sample/control) TUBB2C,TUBB2C; HD 3.2 mg/kg/day vs SAMP8 VEH,0.1327
same,Hybridization signal sample_Cy5 TUBB2C,TUBB2C; LD 0.96 mg/kg/day,9392.47
same,log2 (sample/control) TUBB2C,TUBB2C; LD 0.96 mg/kg/day vs SAMP8 VEH,0.1199
same,Hybridization signal sample_Cy5 TUBB3,TUBB3; HD 3.2 mg/kg/day,3168.4
same,log2 (sample/control) TUBB3,TUBB3; HD 3.2 mg/kg/day vs SAMP8 VEH,0.05769
same,Hybridization signal sample_Cy5 TUBB3,TUBB3; LD 0.96 mg/kg/day,3002.3
same,log2 (sample/control) TUBB3,TUBB3; LD 0.96 mg/kg/day vs SAMP8 VEH,0.04498
same,blood-brain barrier crossing,[1],cross the blood-brain barrier
same,oral availability,[1],orally available
